One assay addresses βBTK Y223 (Homo sapiens (Human), UniProt Q06187). The assay is described as follows: Intracellular βBTK Y223 phosphorylation HTRF in Ramos cells. The format is cell-based. The method, then: The compound was predissolved in 100% DMSO. […] 20 μl of lysate (4× lysate: blocked mother liquor is 25:1) was added to each well and incubated for 30 minutes at 25° C. on a shaker. It was shaken on an oscillator at 800 rpm for 1 minute. […] The half-inhibitory concentration IC50 was calculated by fitting with XLFIT 5.0 software (IDBS, UK).

The target in a further assay is wild-type EGFR kinase (Homo sapiens (Human), UniProt P00533). The assay is described as follows: Wild type EGFR kinase inhibition test (z-lyte). The format is biochemical. Conditions: 10 μM ATP; read-out: EGFR WT IC50. The source says:
All the following reagents used in z-lyte test are commercially available from Invitrogen.
The calculation method for the inhibition ratio (referring to the specification of Invitrogen, PV3363) was as follows: ER=Coumarin Emission(450 nm)/Fluorescein Emission(520 nm) 1. Phosphorylation ratio=(1−((ER×C3520nm−C3450nm)/((C1450nm−C3450nm)+ER×(C3520nm−C1520nm))))×100% 2. Inhibition ratio (IR)=(1−phosphorylation ratio of the test compound)/(phosphorylation ratio of C2))×100% 3.
The half-inhibitory concentration IC50 was calculated by fitting with XLFIT 5.0 software (IDBS, UK).

In the next assay the target is BTK WT (Homo sapiens (Human), UniProt Q06187). The assay is described as follows: Lantha screening kinase reaction, inhibition of BTK WT. The format is biochemical. The method, then:
The compound was predissolved in 100% DMSO. 10 mM drug stock solution was obtained by dissolution at room temperature and then serially diluted with 8 vol % DMSO solution to a final concentration of 10-0.005 μM. […] Among the wells, the kinase in the blank well was replaced with a reaction buffer and the kinase well (Enzyme) was not added with any drug. After shaking at 25° C. for 60 minutes in the dark, 10 μl of Detection Solution (mixture of Invitrogen PV3528 and EDTA, which was diluted with TR-FRET dilution buffer, the working concentration of EDTA was 5 mM, the working concentration of Lanthascreening Tb PY20 antibody was 0.2 nM) was added and shaken at room temperature for 30 minutes. The plates were read on a VictorX5 fluorescent plate reader (PerkinElmer) and the light absorption at an excitation wavelength of 340 nm and emission wavelengths of 500 nm and 520 nm was measured.
The calculation method for the inhibition ratio (referring to the specification of Invitrogen, PV3363) was as follows: Emission ratio (ER):Coumarin Emission (520 nm)/Fluorescein Emission (500 nm) 1. The inhibition ratio (IR):(ERkinase−ERtest compound)/(ERkinase−ERblank)×100%. 2.
The half-inhibitory concentration IC50 was calculated by fitting with XLFIT5.0 software (IDBS, UK).

Data on 13 compounds can be found in patent publication US11155546B2, “4,6,7-trisubstituted 1,2-dihydropyrrolo[3,4-c]pyridin/pyrimidin-3-one derivatives and uses thereof” (SHANGHAI HAIYAN PHARMACEUTICAL TECHNOLOGY CO., LTD., priority 2017, dated 2021).

The structures appear in SMILES notation.

Sequence of wild-type EGFR kinase (P00533 25-1210): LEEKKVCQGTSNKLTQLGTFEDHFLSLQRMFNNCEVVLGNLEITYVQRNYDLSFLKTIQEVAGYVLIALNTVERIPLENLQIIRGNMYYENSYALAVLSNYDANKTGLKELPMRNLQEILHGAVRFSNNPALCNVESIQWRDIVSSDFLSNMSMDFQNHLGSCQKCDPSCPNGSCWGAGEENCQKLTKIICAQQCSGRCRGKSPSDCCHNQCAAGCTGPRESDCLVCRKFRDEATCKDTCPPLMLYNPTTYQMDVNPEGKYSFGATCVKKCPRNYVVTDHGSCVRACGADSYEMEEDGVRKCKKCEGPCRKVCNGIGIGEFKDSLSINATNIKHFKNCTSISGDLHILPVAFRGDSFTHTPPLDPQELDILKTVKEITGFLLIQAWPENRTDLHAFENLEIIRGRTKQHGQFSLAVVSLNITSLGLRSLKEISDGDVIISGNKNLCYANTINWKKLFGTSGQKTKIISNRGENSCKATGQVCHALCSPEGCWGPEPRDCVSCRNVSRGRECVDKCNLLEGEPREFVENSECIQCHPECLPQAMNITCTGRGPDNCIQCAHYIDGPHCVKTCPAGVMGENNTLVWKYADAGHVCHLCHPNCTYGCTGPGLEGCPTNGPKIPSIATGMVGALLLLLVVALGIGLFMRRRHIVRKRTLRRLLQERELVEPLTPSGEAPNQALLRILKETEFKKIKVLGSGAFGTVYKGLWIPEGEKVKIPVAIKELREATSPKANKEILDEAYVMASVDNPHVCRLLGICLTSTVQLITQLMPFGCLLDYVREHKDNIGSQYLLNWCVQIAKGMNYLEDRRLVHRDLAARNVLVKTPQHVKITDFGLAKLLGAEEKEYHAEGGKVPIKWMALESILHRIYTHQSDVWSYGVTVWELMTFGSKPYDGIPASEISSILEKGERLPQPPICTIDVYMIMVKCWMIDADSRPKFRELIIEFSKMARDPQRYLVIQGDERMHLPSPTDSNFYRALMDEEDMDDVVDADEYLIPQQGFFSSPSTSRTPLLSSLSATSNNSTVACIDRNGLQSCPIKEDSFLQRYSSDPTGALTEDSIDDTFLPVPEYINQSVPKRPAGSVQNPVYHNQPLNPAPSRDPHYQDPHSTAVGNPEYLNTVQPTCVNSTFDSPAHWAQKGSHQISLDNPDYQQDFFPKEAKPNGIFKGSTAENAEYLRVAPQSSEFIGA
Sequence of βBTK Y223 (Q06187 whole entry): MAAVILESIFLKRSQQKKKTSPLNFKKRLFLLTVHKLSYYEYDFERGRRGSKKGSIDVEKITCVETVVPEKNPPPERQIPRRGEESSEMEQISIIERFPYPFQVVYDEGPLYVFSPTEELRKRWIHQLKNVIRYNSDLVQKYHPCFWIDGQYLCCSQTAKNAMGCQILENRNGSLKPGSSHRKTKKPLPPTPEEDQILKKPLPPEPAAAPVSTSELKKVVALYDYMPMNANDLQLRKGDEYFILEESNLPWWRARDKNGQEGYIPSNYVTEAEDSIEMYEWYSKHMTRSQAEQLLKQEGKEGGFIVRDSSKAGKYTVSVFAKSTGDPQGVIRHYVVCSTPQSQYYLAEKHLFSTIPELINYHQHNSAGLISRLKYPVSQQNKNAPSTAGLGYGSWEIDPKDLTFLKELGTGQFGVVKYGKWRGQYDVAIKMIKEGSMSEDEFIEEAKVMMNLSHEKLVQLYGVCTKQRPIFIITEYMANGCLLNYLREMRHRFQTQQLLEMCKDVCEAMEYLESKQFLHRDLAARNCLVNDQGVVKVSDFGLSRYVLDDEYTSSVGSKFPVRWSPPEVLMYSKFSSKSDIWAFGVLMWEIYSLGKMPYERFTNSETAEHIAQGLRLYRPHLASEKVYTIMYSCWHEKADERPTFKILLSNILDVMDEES
Sequence of BTK WT (Q06187 whole entry): as above

The IC50 is the concentration that inhibits the measured activity by half. Turning to `C=CC(=O)N1CCCC(Nc2nc(Nc3cnn(C4CCS(=O)(=O)CC4)c3)c3c(c2F)CNC3=O)C1` (stereo not drawn) [Compound G-13], the half-maximal inhibitory concentration (IC50) against βBTK Y223 is 45 nM; on wild-type EGFR kinase, 1600 nM; against BTK WT, 3 nM.

Turning to `C=CC(=O)N1CCCC(Nc2nc(Nc3cnn(C4CN(C)CC4F)c3)c3c(c2F)CNC3=O)C1` (stereo not drawn) [Compound G-15], the half-inhibitory concentration (IC50) at βBTK Y223 turned out to be 5 nM; at wild-type EGFR kinase it was 1220 nM; at BTK WT, 3 nM.

For `C=CC(=O)N1CCCC(Nc2nc(Nc3ccc(N4CCOCC4=O)cc3)c3c(c2F)CNC3=O)C1` (stereo not drawn) [Compound G-17], the IC50 turned out to be 16 nM at βBTK Y223, 1500 nM at wild-type EGFR kinase and 2 nM against BTK WT.

Consider `C=CC(=O)N1CCCC(Nc2nc(Nc3cnn(C)c3)c3c(c2F)CNC3=O)C1` (stereo not drawn) [Compound G-25], for which the figures for the IC50 on βBTK Y223, on wild-type EGFR kinase and against BTK WT were 2 nM, 1090 nM and 2 nM, respectively.

For `C=CC(=O)N1CCCCC(Nc2nc(Nc3ccc(N4CCOCC4)cc3)c3c(c2F)CNC3=O)C1` (stereo not drawn) [Compound G-27], the half-inhibitory concentration (IC50) was found to be 11 nM against βBTK Y223, 3690 nM at wild-type EGFR kinase and 5 nM against BTK WT.

Turning to `C=CC(=O)N1CC(Nc2nc(Nc3ccc(N4CCOCC4)cc3)c3c(c2F)CNC3=O)CCC1C` (stereo not drawn) [Compound G-28], the concentration for half-maximal inhibition (IC50) at βBTK Y223 was 10 nM; on wild-type EGFR kinase it was 2300 nM; against BTK WT, 5 nM.

As to `C=CC(=O)N1CCCC(Nc2nc(-c3cnn(C)c3)c3c(c2F)CNC3=O)C1C` (stereo not drawn) [Compound G-51], the IC50 against βBTK Y223 was 80 nM; on wild-type EGFR kinase, 6820 nM; against BTK WT, 62 nM.

As to `C=CC(=O)N1CCCC(Nc2nc3c(c(Nc4cnn(C)c4)n2)C(=O)NC3)C1` (stereo not drawn) [Compound G-59, 2-(1-acryloylpiperidin-3-ylamino)-4-(1-methyl-1H-pyrazole-4-ylamino)-6,7-dihydrogen-5H-pyrrolo[3,4-d]pyrimidine-5-one], the IC50 at βBTK Y223 is 16 nM; on wild-type EGFR kinase, 1020 nM; against BTK WT, 13 nM.

On to `C=CC(=O)N1CCCC(N(C)c2nc(-c3cnn(C(F)F)c3)c3c(c2F)CNC3=O)C1` (stereo not drawn) [Compound G-63, 6-((1-acryloylpiperidin-3-yl)(methyl)amino)-4-(1-(difluoromethyl)-1H-pyrazole-4-yl)-7-fluoro-1H-pyrrolo[3,4-c]pyridine-3(2H)-one], for which the IC50 was 50 nM on βBTK Y223, more than 10000 nM at wild-type EGFR kinase and 25 nM on BTK WT.

For the compound `C=CC(=O)N1CC2CN(c3nc(Nc4cnn(C)c4)c4c(c3F)CNC4=O)CC2C1` (stereo not drawn) [Compound G-76], the IC50 at βBTK Y223 is 2 nM; at wild-type EGFR kinase, 1360 nM; against BTK WT it was 0.8 nM.

With `C=CC(=O)NC1CN(c2nc(Nc3cnn(C)c3)c3c(c2F)CNC3=O)C1` [Compound G-85, N-(1-(7-fluoro-4-(1-methyl-1H-pyrazol-4-ylamino)-3-oxo-2,3-dihydro-1H-pyrrolo[3,4-c]pyridin-6-yl)azetidin-3-yl)acrylamide], the results for the 50% inhibitory concentration (IC50) against βBTK Y223, on wild-type EGFR kinase and against BTK WT were 43 nM, 1120 nM and 32 nM, respectively.

For the compound `C=CC(=O)NC1CN(c2nc(Nc3ccc(N4CCOCC4)cc3)c3c(c2F)CNC3=O)CC1F` (stereo not drawn) [Compound G-86, N-(4-fluoro-1-(7-fluoro-4-(4-morpholin)-3-oxo-2,3-dihydro-1H-pyrrolo[3,4-c]pyridin-6-yl)pyrrolidinepyridine-3-yl)acrylamide], the half-maximal inhibitory concentration (IC50) was 5 nM against βBTK Y223, 1180 nM at wild-type EGFR kinase and 1 nM against BTK WT.

On to `C=CC(=O)N(C)C1CCN(c2nc(Nc3cnn(C)c3)c3c(c2F)CNC3=O)C1` (stereo not drawn) [Compound G-88, N-(1-(7-fluoro-4-(1-methyl-1H-pyrazol-4-ylamino)-3-oxo-2,3-dihydro-1H-pyrrolo[3,4-c]pyridin-6-yl)pyrrolidine-3-yl)-N-methyl acrylamide], for which the figures for the IC50 on βBTK Y223, on wild-type EGFR kinase and at BTK WT were 56 nM, 1050 nM and 17 nM, respectively.
